In publication PMC4762250, “Novel cis-selective and non-epimerisable C3 hydroxy azapodophyllotoxins targeting microtubules in cancer cells” (European Journal of Medicinal Chemistry, 2016):
Where two headings read alike, the source gives them in different places.

How the values were obtained:
[1] = tested on: human prostate cancer cell line 22Rv1; experiment: Oncotest propidium iodide monolayer cell proliferation assay, 22Rv1; type: cell-based; conditions: mean absolute IC50, 96 h treatment, propidium iodide endpoint, triplicate
Method: (§1) The anticancer activity of compounds (8a-q) was evaluated using the Oncotest monolayer assay in the human prostate cancer cell line 22Rv1 and the human breast cancer cell line MCF-7, as an outsourced service. […] Antitumour activity was assessed after four days of treatment with the compounds using a propidium iodide based monolayer assay. Potency is expressed as absolute IC50 values, calculated by non-linear regression analysis following testing in triplicate. The seventeen inhibitors were tested at 10 concentrations in half-log increments up to 100 μM in triplicate.
(§2) A modified propidium iodide (PI) based monolayer assay was used to assess the anti-cancer activity of the compounds. Briefly, cells were harvested from exponential phase cultures, counted and plated in 96-well flat-bottom microtiter plates at a cell density of 8.000–12.000 cells/well. After a 24 h recovery period to allow the cells to resume exponential growth, 10 μl of culture medium (six control wells/plate) or culture medium with test compound were added. The compounds were applied in half-log increments at 10 concentrations in triplicate. After a total treatment period of 96 h, cells were washed with 200 μl PBS to remove dead cells and debris. Then, 200 μl of a solution containing 7 μg/mL propidium iodide (PI) was added. After an incubation period of 1–2 h at room temperature, fluorescence (FU) was measured using the EnSpire Multimode Plate Reader (excitation λ = 530 nm, emission λ = 620 nm) to quantify the amount of attached viable cells. IC50 values were calculated by 4-parameter non-linear curve fit using Oncotest Warehouse Software. For calculation of mean IC50 values the geometric mean was used.

[2] = tested on: human breast cancer cell line MCF-7; experiment: Oncotest propidium iodide monolayer cell proliferation assay, MCF-7; type: cell-based
Method: as §1, §2

[3] = tested on: microtubules in MCF-7 cells; experiment: Microtubule immunofluorescence assay (α-tubulin, confocal microscopy); type: cell-based, human; conditions: 250 nM, 6 h; for effect on tubulin cytoskeleton: MCF-7, interphase cells for 8e and 8b, all cells for podophyllotoxin; for induced defects in dividing cells: MCF-7 dividing cells
Method: In order to investigate the microtubule-destabilising ability of these analogues, experiments were conducted to determine their effects on the subcellular organisation of microtubules in vitro [27]. […] The nuclei of control interphase cells were relatively monomorphic. […] Analogue treated cells in interphase featured shorter microtubule filaments and slightly more disordered microtubule networks than control cells.
Following cell seeding (42 h) the media was replaced with fresh complete media containing 250 nM of podophyllotoxin, compound 8e and 8b or 0.01% DMSO. The cells were treated for 6 h with drug or diluent control then subjected to downstream immunofluorescence analysis (see tubulin immunofluorescence protocol).
The media was aspirated and the cells were washed once in ice-cold PBS before being fixed in 100% methanol at −20 °C for 10 min. The cells were then washed thrice in PBS and stored overnight at 4 °C. The following day cells were incubated in 150 μL of blocking solution (2% FBS [v/v], 2% BSA [w/v] in PBS pH 7.4) for 30 min. Blocking was followed by 1 h incubation with 100 μl of mouse anti-α tubulin antibody diluted 1:2000 in blocking solution. Cells were then washed 3 × 5min in PBS before being incubated with Alexa488 labelled, anti-mouse secondary antibody (1:400) and Hoechst 33342 (1 μg/ml) for 30 min. The cells were washed a final 3 × 5 min in PBS before coverslips were dipped once into PBS, once into dH2O and mounted onto glass slides with 12 μL of mounting medium (Dako oil). Three independent experiments were carried out in duplicate.
Confocal fluorescence microscopy analysis was conducted on a Leica SP5 inverted confocal laser scanning microscope. The microscope was equipped with a 63x oil-immersion objective and the 405 and 488 nm lasers were used. Gain and offset settings were optimised for each fluorescent channel within an experiment. Images were recorded using the sequential scanning mode to prevent fluorescence channel crosstalk/bleed-through. Images were scanned at 100 Hz with a line average of three to reduce noise.

[4] = tested on: microtubules in MCF-7 cells; experiment: Microtubule repolymerisation assay, second variation (no pre-treatment); type: cell-based, human; conditions: 30 min on ice, then rewarmed 37 °C 30 min in presence of 250 nM compound
Method: (§3) Cold depolymerisation of the tubulin cytoskeleton in vitro, including in MCF-7 cells, can be achieved by relatively short incubations at 4 °C [27], [28], [29]. To test the ability of the compounds to impair microtubule polymerisation, following depolymerisation, two variations of a tubulin re-polymerisation assay were performed. In the first, MCF-7 cells were pre-treated for 6 h with 250 nM of the compounds before being incubated on ice for 30 min then rewarmed to 37 °C for a further 30 min. In the second variation, cells were first incubated on ice then rewarmed to 37 °C in the presence of the compounds (250 nM, 30 min total treatment time). Samples of cells were fixed post-cold depolymerisation and post-warm repolymerisation. In both variations, immunofluorescence for α-tubulin was performed and cells were imaged by confocal microscopy (Fig. 6 and 7). In control and treated cells, incubation on ice for 30 min led to total loss of filamentous tubulin and the protein was diffusely scattered throughout the cytoplasm. […] Upon increasing the temperature to 37 °C for 30 min there was clear repolymerisation of the microtubule network.
Following cell seeding (42 h), the plates were placed on ice for 30 min to cold-depolymerise the tubulin cytoskeleton. Control cold-depolymerised coverslips were then immediately prepared for tubulin immunofluorescence and the remaining coverslips were rewarmed and treated with 250 nM of podophyllotoxin, compound 8e, 8b or 0.01% DMSO for 30 min (37 °C, 5% CO2). Together with the controls these were then subjected to tubulin immunofluorescence.
The media was aspirated and the cells were washed once in ice-cold PBS before being fixed in 100% methanol at −20 °C for 10 min. The cells were then washed thrice in PBS and stored overnight at 4 °C. […]
(§4) Confocal fluorescence microscopy analysis was conducted on a Leica SP5 inverted confocal laser scanning microscope. […] Images were recorded using the sequential scanning mode to prevent fluorescence channel crosstalk/bleed-through. […]

MCF-7 and 22Rv1 = experiment: Oncotest monolayer assay, results stated over both cell lines; type: cell-based, human; conditions: cell viability, ten concentrations up to 100 μM, Fig. 3
Method: as §1, §2

[5] = tested on: microtubules in MCF-7 cells; experiment: Microtubule repolymerisation assay, first variation (6 h pre-treatment); type: cell-based, human; conditions: 250 nM 6 h pre-treatment, 30 min on ice, rewarmed 37 °C 30 min
Method: as §3
Following cell seeding (42 h) the media was replaced with drug (or diluent control) containing complete media and cells were treated for 6 h with 250 nM of podophyllotoxin, compound 8e, 8b or 0.01% DMSO. The plates were then placed on ice and cells were incubated at 4 °C for 30 min to depolymerise the tubulin cytoskeleton, [28], [30]. One set of cover slips for each treatment condition was prepared for tubulin immunofluorescence (see protocol below) and the remaining sets of cover slips were returned to the incubator (37 °C, 5% CO2) for 30 min to allow re-polymerisation of microtubules. Tubulin immunofluorescence was performed after the cells had been rewarmed for 30 min (see below). […]
as §4

[6] = set-up: method as in PMID 3290912; conditions: cis isomer versus podophyllotoxin; cited from earlier work
[7] = Homo sapiens, MCF7, 96 h, mean absolute IC50, 96 h treatment, propidium iodide endpoint, triplicate, read-out: MCF-7 IC50

Row | IC50 ([1]; Homo sapiens, 22Rv1, 96 h) | IC50 [2, 7] | IC50 [1] | IC50 ([2]; mean absolute IC50, 96 h treatment, propidium iodide endpoint, triplicate, read-out: MCF-7 IC50) | SMILES | effect on tubulin cytoskeleton [3] | induced defects in dividing cells [3] | repolymerisation of tubulin following cold depolymerisation [4] | concentration-effect curve (MCF-7 and 22Rv1) | repolymerisation of tubulin following cold depolymerisation [5] | IC50 ([2]; Homo sapiens, MCF7, 96 h, read-out: MCF-7 IC50 (μM)) | less active than podophyllotoxin [6]
1 | 165 nM | 0.288 µM | – | – | O=C1OC[C@]2(O)Nc3c(c4cccnc4c4ncccc34)[C@@H](c3ccccc3OC(F)(F)F)[C@H]12 (mixture of isomers) [Compound 8b, (9aS, 12aS, 13S) and (9aR, 12aR, 13R) 9a-hydroxy-13-(2-(trifluoromethoxy)phenyl)-9a,10,12a,13-tetrahydrofuro[3,4-b]pyrido[3,2-f][1,10]phenanthrolin-12(9H)-one] | more subtle changes in the tubulin filaments and their organisation | aberrations of spindle morphology and polarity, nuclear atypia (pleomorphism, pyknosis) and uncongressed/misaligned chromosomes | the microtubule cytoskeleton was able to reform with negligible defects | sigmoidal concentration-effect curves with low bottom plateaus indicating total cell kill at higher test concentration | the microtubule cytoskeleton was still able to reform but mitotic defects and shorter filaments | – | –
2 | 110 nM | 0.21 µM | 107 nM | 0.209 µM | O=C1OC[C@]2(O)Nc3c(c4cccnc4c4ncccc34)[C@@H](c3ccccc3C(F)(F)F)[C@@H]12 (mixture of isomers) [Compound 8e, (9aS, 12aR, 13R) and (9aR, 12aS, 13S) 9a-hydroxy-13-(2-(trifluoromethyl)phenyl)-9a,10,12a,13-tetrahydrofuro[3,4-b]pyrido[3,2-f][1,10]phenanthrolin-12(9H)-one] | more subtle changes in the tubulin filaments and their organisation | aberrations of spindle morphology and polarity, nuclear atypia (pleomorphism, pyknosis) and uncongressed/misaligned chromosomes | the microtubule cytoskeleton was able to reform with negligible defects | sigmoidal concentration-effect curves with low bottom plateaus indicating total cell kill at higher test concentration | the microtubule cytoskeleton was still able to reform but mitotic defects and shorter filaments | – | –
3 | – | – | – | – | COc1cc([C@@H]2c3cc4c(cc3[C@H](O)[C@H]3COC(=O)[C@H]23)OCO4)cc(OC)c1OC [Podophyllotoxin] | dramatic disruption of the tubulin cytoskeleton | – | significantly impaired the repolymerisation of tubulin following cold depolymerisation | – | significantly impaired the repolymerisation of tubulin following cold depolymerisation | 0.23 µM | –
4 | – | – | – | – | COc1cc([C@@H]2c3cc4c(cc3[C@H](O)[C@H]3COC(=O)[C@@H]23)OCO4)cc(OC)c1OC [picropodophyllin] | – | – | – | – | – | – | 100 fold
